In patent US11578069B2, “Compounds for inhibition of α4 β7 integrin” (Gilead Sciences, Inc., priority 2019, dated 2023):

Legend:
α4β7 integrin = biological target: T1, α4β7 integrin (Homo sapiens, UniProt P13612+P26010); assay: α4β7 Integrin Cell Capture Assay; format: cell-based; conditions: capture of α4β7 integrin expressing RPM18866 cells on MadCAM-1 extracellular domain-coated plate
T1 construct: monitoring the capture of α4β7 integrin expressing cells; endogenous in cells; host or cells: RPMI8866
T1 sequence (P13612 34-1032): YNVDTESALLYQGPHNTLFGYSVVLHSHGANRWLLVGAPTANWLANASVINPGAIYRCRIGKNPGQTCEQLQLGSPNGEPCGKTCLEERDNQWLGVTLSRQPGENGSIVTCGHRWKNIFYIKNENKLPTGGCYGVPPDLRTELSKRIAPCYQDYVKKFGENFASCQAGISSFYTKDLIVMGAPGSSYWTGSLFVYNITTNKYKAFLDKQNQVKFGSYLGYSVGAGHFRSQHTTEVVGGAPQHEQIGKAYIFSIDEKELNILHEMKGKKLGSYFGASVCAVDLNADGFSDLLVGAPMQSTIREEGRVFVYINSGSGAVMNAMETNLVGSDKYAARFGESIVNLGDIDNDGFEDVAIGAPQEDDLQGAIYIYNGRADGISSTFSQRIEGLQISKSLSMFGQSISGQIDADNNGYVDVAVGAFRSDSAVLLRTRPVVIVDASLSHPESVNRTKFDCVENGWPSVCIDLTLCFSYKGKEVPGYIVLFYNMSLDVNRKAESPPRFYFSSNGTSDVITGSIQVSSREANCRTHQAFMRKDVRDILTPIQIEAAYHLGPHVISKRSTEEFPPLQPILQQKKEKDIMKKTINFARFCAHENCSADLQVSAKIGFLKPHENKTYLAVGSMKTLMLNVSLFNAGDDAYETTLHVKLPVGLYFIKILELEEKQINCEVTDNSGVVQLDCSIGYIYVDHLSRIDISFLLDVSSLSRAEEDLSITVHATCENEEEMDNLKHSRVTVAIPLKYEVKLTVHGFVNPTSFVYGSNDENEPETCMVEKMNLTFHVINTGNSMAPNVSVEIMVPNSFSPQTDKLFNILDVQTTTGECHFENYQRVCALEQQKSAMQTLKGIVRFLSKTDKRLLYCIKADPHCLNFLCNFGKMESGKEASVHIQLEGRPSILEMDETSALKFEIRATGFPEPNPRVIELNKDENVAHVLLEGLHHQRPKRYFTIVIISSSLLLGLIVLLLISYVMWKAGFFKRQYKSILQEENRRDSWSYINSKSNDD
T1 sequence (P26010 20-798): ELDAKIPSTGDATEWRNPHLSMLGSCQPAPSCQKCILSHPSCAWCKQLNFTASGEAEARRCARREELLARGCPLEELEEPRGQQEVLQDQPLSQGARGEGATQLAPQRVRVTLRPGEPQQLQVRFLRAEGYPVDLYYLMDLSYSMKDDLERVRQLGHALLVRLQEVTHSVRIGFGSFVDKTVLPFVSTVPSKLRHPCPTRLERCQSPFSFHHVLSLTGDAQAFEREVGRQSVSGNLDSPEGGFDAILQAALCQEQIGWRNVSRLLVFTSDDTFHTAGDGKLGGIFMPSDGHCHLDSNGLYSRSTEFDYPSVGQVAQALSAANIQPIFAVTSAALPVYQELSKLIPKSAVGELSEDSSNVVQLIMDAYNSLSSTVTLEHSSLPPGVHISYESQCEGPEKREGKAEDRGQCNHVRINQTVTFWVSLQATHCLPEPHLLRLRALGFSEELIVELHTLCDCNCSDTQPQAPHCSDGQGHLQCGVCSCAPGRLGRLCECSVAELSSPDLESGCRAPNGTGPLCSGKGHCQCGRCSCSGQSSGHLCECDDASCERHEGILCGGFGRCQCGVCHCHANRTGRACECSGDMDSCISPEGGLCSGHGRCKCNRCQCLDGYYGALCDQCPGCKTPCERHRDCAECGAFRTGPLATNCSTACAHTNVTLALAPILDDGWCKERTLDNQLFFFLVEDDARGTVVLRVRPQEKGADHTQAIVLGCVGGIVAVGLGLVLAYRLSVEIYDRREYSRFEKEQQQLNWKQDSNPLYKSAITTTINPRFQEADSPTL
How it was run: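 RPM18866 cells were preincubated with compound for 1 h at 37 °C in DMEM with 0.5% FBS and 0.5 mM MnCl2. They were then allowed to adhere for 30 min at 37 °C to BSA-blocked plates coated with MAdCAM-1 extracellular domain (1.0 µg/mL). After glutaraldehyde/Hoechst fixation and washing, bound cells were counted by imaging, and EC50 was fitted from counts versus concentration.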

α4β1 integrin = biological target: T2, α4β1 integrin (Homo sapiens, UniProt P05556+P13612); assay: α4β1 Cell Capture Assay; format: cell-based; conditions: capture of α4β1 expressing Jurkat cells on VCAM-1 extracellular domain-coated plate
T2 construct: monitoring the capture of α4β1 expressing cells; endogenous in cells; host or cells: Jurkat
T2 sequence (P05556 21-798, one chain of several): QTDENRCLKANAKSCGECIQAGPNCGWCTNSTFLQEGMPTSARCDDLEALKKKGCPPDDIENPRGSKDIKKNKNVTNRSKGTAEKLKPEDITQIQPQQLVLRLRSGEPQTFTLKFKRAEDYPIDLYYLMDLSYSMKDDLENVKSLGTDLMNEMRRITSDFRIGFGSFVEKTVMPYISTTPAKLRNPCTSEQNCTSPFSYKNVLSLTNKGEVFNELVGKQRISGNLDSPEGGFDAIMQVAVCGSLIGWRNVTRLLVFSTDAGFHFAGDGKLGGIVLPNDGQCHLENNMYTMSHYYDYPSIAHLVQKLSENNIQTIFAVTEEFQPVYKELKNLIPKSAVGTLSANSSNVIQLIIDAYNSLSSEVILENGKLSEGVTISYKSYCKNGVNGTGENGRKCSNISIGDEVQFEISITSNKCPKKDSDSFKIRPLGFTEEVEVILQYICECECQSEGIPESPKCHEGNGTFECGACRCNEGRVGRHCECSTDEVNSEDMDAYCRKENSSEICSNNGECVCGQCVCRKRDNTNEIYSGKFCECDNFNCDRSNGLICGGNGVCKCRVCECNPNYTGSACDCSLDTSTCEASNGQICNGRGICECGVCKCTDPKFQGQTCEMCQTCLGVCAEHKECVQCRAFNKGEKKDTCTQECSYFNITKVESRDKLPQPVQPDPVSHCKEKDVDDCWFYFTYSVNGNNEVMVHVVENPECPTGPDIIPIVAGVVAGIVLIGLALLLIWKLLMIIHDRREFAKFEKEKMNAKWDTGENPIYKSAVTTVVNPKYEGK
How it was run: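 Jurkat cells in DMEM with 0.5% FBS and 0.5 mM MnCl2 preincubated 1 h at 37° C with compound, then allowed 30 min at 37° C to bind plates coated with recombinant VCAM-1 extracellular domain (0.5 μg/ml). After glutaraldehyde fixation and Hoechst staining, bound cells counted by imaging; EC50 from concentration–response.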

Cc1cc(N2CCOC[C@@H]2C(F)(F)F)cc(F)c1C(=O)N[C@@H](Cc1ccc(-n2c(=O)c3c(n(C)c2=O)CCOC3)nc1)C(=O)O [Example 68, (S)-2-(2-fluoro-6-methyl-4-((R)-3-(trifluoromethyl)morpholino)benzamido)-3-(6-(1-methyl-2,4-dioxo-1,5,7,8-tetrahydro-2H-pyrano[4,3-d]pyrimidin-3(4H)-yl)pyridin-3-yl)propanoic acid]
EC50 (α4β7 integrin; Table 1): 0.3 nM
EC50 (α4β1 integrin; Table 1): 14.9 nM

Cc1cc(N2CCOC[C@@H]2CC(F)F)cc(F)c1C(=O)N[C@@H](Cc1ccc(-n2c(=O)c3ccncc3n(C)c2=O)nc1)C(=O)O [Example 69, (S)-2-(4-((S)-3-(2,2-difluoroethyl)morpholino)-2-fluoro-6-methylbenzamido)-3-(6-(1-methyl-2,4-dioxo-1,4-dihydropyrido[3,4-d]pyrimidin-3(2H)-yl)pyridin-3-yl)propanoic acid]
EC50 (α4β7 integrin; Table 1): 0.2 nM
EC50 (α4β1 integrin; Table 1): 20.8 nM

Cc1cc(N2CCOC[C@@H]2CC(F)F)cc(F)c1C(=O)N[C@@H](Cc1ccc(-n2c(=O)c3c(n(C)c2=O)COC3)cc1)C(=O)O [Example 70, (S)-2-(4-((S)-3-(2,2-difluoroethyl)morpholino)-2-fluoro-6-methylbenzamido)-3-(4-(1-methyl-2,4-dioxo-1,2,5,7-tetrahydrofuro[3,4-d]pyrimidin-3(4H)-yl)phenyl)propanoic acid]
EC50 (α4β7 integrin; Table 1): 3.9 nM
EC50 (α4β1 integrin; Table 1): 2.4 nM

Cc1cc(N2CCOC[C@@H]2C(F)(F)F)cc(F)c1C(=O)N[C@@H](Cc1ccc(-n2c(=O)c3c(C#N)cccc3n(C)c2=O)nc1)C(=O)O [Example 72]
EC50 (α4β7 integrin; Table 2): 0.18 nM
EC50 (α4β1 integrin; Table 2): 4 nM

Cc1cc(N2CCOC[C@@H]2C(F)(F)F)cc(F)c1C(=O)N[C@@H](Cc1ccc(-n2c(=O)c3cc(C#N)ccc3n(C)c2=O)nc1)C(=O)O [Example 74]
EC50 (α4β7 integrin; Table 2): 0.14 nM
EC50 (α4β1 integrin; Table 2): 5.2 nM

Cc1cc(N2CCOC[C@@H]2C(F)(F)F)cc(F)c1C(=O)N[C@@H](Cc1ccc(-n2c(=O)c3ccc(C#N)cc3n(C)c2=O)nc1)C(=O)O [Example 76]
EC50 (α4β7 integrin; Table 2): 0.16 nM
EC50 (α4β1 integrin; Table 2): 4.9 nM

COc1cnc2c(=O)n(-c3ccc(C[C@H](NC(=O)c4c(C)cc(N5CCOC[C@@H]5C(F)(F)F)cc4F)C(=O)O)cn3)c(=O)n(C)c2c1 [Example 78]
EC50 (α4β7 integrin; Table 2): 0.16 nM
EC50 (α4β1 integrin; Table 2): 3.4 nM

Cc1cc(N2CCOC[C@@H]2C(F)(F)F)cc(F)c1C(=O)N[C@@H](Cc1cc(F)c(-n2c(=O)c3ccncc3n(C)c2=O)c(F)c1)C(=O)O [Example 80]
EC50 (α4β7 integrin; Table 2): 0.06 nM
EC50 (α4β1 integrin; Table 2): 2.1 nM

Cn1c(=O)n(-c2c(F)cc(C[C@H](NC(=O)c3c(F)cc(N4CCOC[C@@H]4C(F)(F)F)cc3F)C(=O)O)cc2F)c(=O)c2ccncc21 [Example 82]
EC50 (α4β7 integrin; Table 2): 0.15 nM
EC50 (α4β1 integrin; Table 2): 4.5 nM

Cc1cc(N2CCOC[C@@H]2C(F)(F)F)cc(F)c1C(=O)N[C@@H](Cc1ccc(-n2c(=O)c3ccncc3n(C)c2=O)c(F)c1)C(=O)O [Example 84]
EC50 (α4β7 integrin; Table 2): 0.05 nM
EC50 (α4β1 integrin; Table 2): 1.7 nM

Cc1cc(N2CCOC[C@H]2CC(F)F)cc(F)c1C(=O)N[C@@H](Cc1ccc(-n2c(=O)c3ccncc3n(C)c2=O)nc1)C(=O)O [Example 85]
EC50 (α4β7 integrin; Table 2): 3.9 nM
EC50 (α4β1 integrin; Table 2): 17.9 nM

Cc1cc(N2CCOC[C@H]2CC(F)(F)F)cc(F)c1C(=O)N[C@@H](Cc1ccc(-n2c(=O)c3ccncc3n(C)c2=O)nc1)C(=O)O [Example 86]
EC50 (α4β7 integrin; Table 2): 4.2 nM
EC50 (α4β1 integrin; Table 2): 46.1 nM

Cc1cc(N2CCOC[C@@H]2CC(F)(F)F)cc(F)c1C(=O)N[C@@H](Cc1ccc(-n2c(=O)c3ccncc3n(C)c2=O)nc1)C(=O)O [Example 87]
EC50 (α4β7 integrin; Table 2): 0.9 nM
EC50 (α4β1 integrin; Table 2): 19.7 nM
